This is an account of results in ChEMBL document CHEMBL1781940, “Cytotoxic and PPARs transcriptional activities of sterols from the Vietnamese soft coral Lobophytum laevigatum” (Bioorg Med Chem Lett, 2011).

Experiment [1] has as its system HL-60. Kind of experiment: Induction of apoptosis in human HL60 cells assessed as chromatin condensation apoptotic bodies at 5.6 uM after 24 hrs using Hoechst 33342 staining and fluorescent microscopy. The experiment is classed as functional, cell-based.
Experiment [2] deals with HCT-116. Kind of experiment: Induction of apoptosis in human HCT116 cells assessed as chromatin condensation apoptotic bodies at 3.2 uM after 24 hrs using Hoechst 33342 staining and fluorescent microscopy. The experiment is classed as functional, cell-based.
The test system of experiment [3] is HCT-116. Put plainly: Cytotoxicity against human HCT116 cells after 24 hrs by MTT assay. The experiment is classed as functional, cell-based. As to conditions: for IC50: HCT-116, 24 h. On the technique in general: Tetrazolium assays rely on reduction of a dye to a coloured formazan, in cell work by metabolically active cells.
Experiment [4] concerns HL-60. Put plainly: Cytotoxicity against human HL60 cells after 24 hrs by MTT assay. The experiment is classed as functional, cell-based. As to conditions: for IC50: HL-60, 24 h.
The subject of experiment [5] is A549. Kind of experiment: Cytotoxicity against human A549 cells after 24 hrs by MTT assay. It counts as functional, cell-based. As to conditions: for IC50: A549, 24 h.
The subject of experiment [6] is A549. Kind of experiment: Induction of apoptosis in human A549 cells assessed as chromatin condensation apoptotic bodies at 4.5 uM after 24 hrs using Hoechst 33342 staining and fluorescent microscopy. It counts as functional, cell-based.
Experiment [7] relates to HepG2. Put plainly: Transactivation of PPAR transcriptional activity expressed in human HepG2 cells co-expressing PPRE-Luc after 24 hrs by luciferase reporter gene assay relative to negative control. The experiment is classed as cell-based. In general terms: A reporter such as luciferase makes a cellular process visible.
Experiment [8] relates to HepG2. Kind of experiment: Transactivation of PPAR transcriptional activity expressed in human HepG2 cells co-expressing PPRE-Luc at 1 uM after 24 hrs by luciferase reporter gene assay relative to negative control. It counts as cell-based.
Experiment [9] concerns HepG2. Put plainly: Transactivation of PPAR transcriptional activity expressed in human HepG2 cells co-expressing PPRE-Luc at 10 uM after 24 hrs by luciferase reporter gene assay relative to negative control. The experiment is classed as cell-based.

Calls of active or inactive are those of the source. The calls are words filed in the database; no cut-off is given here.

`CC(C)[C@H](C)[C@H](C)[C@@H](O)[C@]1(C)O[C@]12CC[C@H]1[C@@H]3CC[C@H]4[C@H](C)[C@@H](O)CC[C@]4(C)[C@H]3CC[C@@]12C` [LOBOPHYTOSTEROL]: the result in [1], in experiment [2] and in experiment [6] was Active. For the same molecule, the IC50 in experiment [3] amounted to 3.2 µM; in experiment [4], 5.6 µM; in [5], 4.5 µM.

Turning to `CC(C)CCC[C@@H](C)[C@H]1CC[C@H]2[C@@H]3CC=C4C[C@@H](O)CC[C@]4(C)[C@H]3CC[C@]12C`, the result in [3], in [4] and in experiment [5] was inactive.

`CC(=O)[C@H]1CC[C@H]2[C@@H]3CC=C4C[C@@H](O)CC[C@]4(C)[C@H]3CC[C@]12C`: the result in [3], in experiment [4] and in [5] was inactive. For the same molecule, the Activity entry in experiment [7] is “Dose-dependent effect”. Besides, the fold change (FC) in experiment [8] came to 1.6; in experiment [9], 2.1.

On to `CC(C)[C@@H](C)CC[C@@H](C)[C@H]1CC[C@H]2[C@@H]3[C@H](O)C=C4C[C@@H](O)CC[C@]4(C)[C@H]3CC[C@]12C`, for which the result in experiment [3], in [4] and in [5] was inactive. Moreover, the Activity result in experiment [7] is “Dose-dependent effect”. The figures for the fold change (FC) in [8] and in [9] were 1.2 and 2.5, respectively.

As to `O=C1c2c(O)ccc(O)c2C(=O)c2c(NCCNCCO)ccc(NCCNCCO)c21` [MITOXANTRONE], in [4], the IC50 is 8.2 µM.

Take `C[C@H]1C[C@]2(O[C@H]3C[C@H]4[C@@H]5CC=C6C[C@@H](O)CC[C@]6(C)[C@H]5CC[C@]4(C)[C@H]3[C@@]2(C)O)OC1(C)C`: the figures for the IC50 in [3], in experiment [4] and in experiment [5] were 6.9 µM, above 20 µM and above 20 µM, respectively. Moreover, the Activity result in experiment [7] was “Dose-dependent effect”. For the same molecule, the fold change (FC) in experiment [8] is 1.4; in experiment [9], 2.

Turning to `C[C@H](CC[C@H](C)C(C)(C)O)[C@H]1CC[C@H]2[C@@H]3CC=C4C[C@@H](O)CC[C@]4(C)[C@H]3CC[C@]12C`, the IC50 in experiment [3] is 18.1 µM; in [4], above 20 µM; in [5], above 20 µM.

Broadly, the IC50 is the midpoint of a concentration-inhibition curve. High values mean lower potency, low ones higher potency.
